Reference: US20150113683A1, “METHODS FOR PLANT TRANSFORMATION USING SPECTINOMYCIN SELECTION” (Monsanto Technology LLC, priority 2007, published 2015)
Where “and” joins values, the source holds several entries; their conditions need not be identical. Identical values can stand only once.

Legend:
[1] = test system: soybean explants; assay: Explants on different levels of spectinomycin: GUS-expressing buds and shoots; assay type: cell-based, soybean (Glycine max); conditions: for % explants with GUS+ shoots/buds / # Explants with GUS+ shoots/buds: 2 mg/L TDZ in co-culture; for # Explants with GUS+ shoots/buds: 25 explants assayed
[2] = test system: soybean explants; assay: Transformation frequency using spectinomycin selection at different levels; assay type: cell-based, soybean (Glycine max)
[3] = test system: dry soybean explants; assay: Transformation frequency of dry soybean explants using glyphosate or spectinomycin as selective agent; assay type: cell-based; conditions: for % TF: dry soybean explants
[4] = test system: dry soybean explants; assay: Dry soybean embryos, spectinomycin, liquid culture medium: TF with hydration conditions and liquid overlay timing; assay type: cell-based; conditions: spectinomycin 150 ppm
Excerpt: In these studies, explants were initially hydrated and eventually regenerated on WPM solid media with liquid overlay or WPM liquid medium as above. […] In liquid overlay treatment both solid and liquid culture media were used; liquid medium was dispensed over the top of explants as they were lying on solid medium at a specified time during tissue culture as identified in the Table 30. This was done as a type of media refreshment and avoids the need for transferring explants from old media to new media. In the control treatments, explants were surface plated on a solid WPM medium (Table 2).

[5] = test system: dry excised soybean explants; assay: Dry soybean embryos, spectinomycin, whole regenerated explant with pre-culturing step: TF and event quality; assay type: cell-based; conditions: for % quality events: 1-2 copies of GUS and aadA by Invader assay; for # Events produced / TF % / qTF %: spectinomycin 150 ppm; for Estimated mTF %: marker-free TF, events without the marker gene
[6] = test system: 3 months stored dry soybean explants; assay: Stored dry soybean explants, spectinomycin, pre-culture: TF; assay type: cell-based; conditions: pMON107379
Excerpt: TDZ and lipoic acid were both added to the inoculum and to the co-culture media (INO). The construct, pMON107379, was a conventional 2T vector comprising oriRi and aadA gene, and co-culture was done for 5 days.

[7] = Total over all Spec levels of the experiment (1102: 25-250 mg/L; 1119: 50-250 mg/L)
[8] = first study, spectinomycin selection 25-250 mg/L

Compound: CN[C@@H]1[C@H](O)[C@H](NC)[C@H]2O[C@@]3(O)C(=O)C[C@@H](C)O[C@H]3O[C@@H]2[C@H]1O [Spectinomycin, spectinomycin]
- % explants with GUS+ shoots/buds ([1]; spectinomycin level 25 (mg/L)): 52%
- # Explants with GUS+ shoots/buds ([1]; spectinomycin level 25 (mg/L)): 13
- % explants with GUS+ shoots/buds ([1]; spectinomycin level 50): 72%
- # Explants with GUS+ shoots/buds ([1]; spectinomycin level 50): 18
- % explants with GUS+ shoots/buds ([1]; spectinomycin level 100): 76%
- # Explants with GUS+ shoots/buds ([1]; spectinomycin level 100): 19
- % explants with GUS+ shoots/buds ([1]; spectinomycin level 150): 72%
- # Explants with GUS+ shoots/buds ([1]; spectinomycin level 150): 18
- % explants with GUS+ shoots/buds ([1]; spectinomycin level 200): 80%
- # Explants with GUS+ shoots/buds ([1]; spectinomycin level 200): 20
- % explants with GUS+ shoots/buds ([1]; spectinomycin level 250): 80%
- # Explants with GUS+ shoots/buds ([1]; spectinomycin level 250): 20
- explants that developed GUS-positive buds and shoots ([1]; within two weeks on selective medium, about 22 DAI, TDZ-treated explants): Up to 80%
- % TF (transformation frequency) ([2]; Spec level 25 mg/L): 19%
- Plants tested for transformation, Total ([2]; Spec level 25 mg/L): 19
- Shoots harvested, % SF (shoot frequency) ([2]; Spec level 25 mg/L): 46%
- Shoots harvested, Total ([2]; Spec level 25 mg/L): 46
- % TF (transformation frequency) ([2]; Spec level 50 mg/L): 14.7% and 22.2%
- Plants tested for transformation, Total ([2]; Spec level 50 mg/L): 88 and 48
- Shoots harvested, % SF (shoot frequency) ([2]; Spec level 50 mg/L): 24.8% and 46.8%
- Shoots harvested, Total ([2]; Spec level 50 mg/L): 149 and 101
- % TF (transformation frequency) ([2]; Spec level 100 mg/L): 15.7% and 12.6%
- Shoots harvested, % SF (shoot frequency) ([2]; Spec level 100 mg/L): 20.5% and 20.6%
- % TF (transformation frequency) ([2]; Spec level 150 mg/L): 26.1% and 18.3%
- Shoots harvested, % SF (shoot frequency) ([2]; Spec level 150 mg/L): 35.1% and 20.8%
- % TF (transformation frequency) ([2]; Spec level 200 mg/L): 14.4% and 12.5%
- Shoots harvested, % SF (shoot frequency) ([2]; Spec level 200 mg/L): 28.2% and 15.2%
- Shoots harvested, Total ([2]; Spec level 200 mg/L): 53 and 91
- % TF (transformation frequency) ([2]; Spec level 250 mg/L): 19.5% and 16.3%
- Shoots harvested, % SF (shoot frequency) ([2]; Spec level 250 mg/L): 27.5% and 18.0%
- Shoots harvested, Total ([2]; Spec level 250 mg/L): 55 and 108
- % TF (transformation frequency) [2, 7]: 18.6% and 15.5%
- Shoots harvested, % SF (shoot frequency) [2, 7]: 33.3% and 19.9%
- Shoots harvested, Total [2, 7]: 330 and 596
- average transformation frequency [2, 8]: 18.6%
- transformation frequency, range [2, 8]: 12.6-26.1%
- plants later shown to be transformed ([2]; of the first 32 plants tested to confirm transformation, one escape): 31
- transformation frequencies ([3]; 150 ppm spectinomycin, dry excised soybean embryos, 1 hr hydration in INO, 4 days co-culture, two different studies): 25.05% and 19.27%
- % TF ([3]; Spectinomycin 25 ppm in regeneration medium): 4.66%
- % TF ([3]; Spectinomycin 50 ppm in regeneration medium): 4.24%
- % TF ([3]; Spectinomycin 100 ppm in regeneration medium): 6.34%
- % TF ([3]; Spectinomycin 200 ppm in regeneration medium): 5.99%
- TF % (mean of 3 repeats) ([4]; Treatment 1-Control, hydration medium INO, incubation with Agrobacteria 0 minutes, surface plated on solid WPM): 3.10%
- TF % (mean of 3 repeats) ([4]; Treatment 2, hydration medium BGM w/o cefotaxime, incubation with Agrobacteria 0 minutes): 14.67%
- TF % (mean of repeats) ([4]; Treatment 2, no liquid overlay, Oasis Wedge transfer for regeneration): 14.67%
- TF % (mean of 3 repeats) ([4]; Treatment 3, hydration medium BGM w/o cefotaxime, incubation with Agrobacteria 15 minutes): 15.45%
- TF % (mean of repeats) ([4]; Treatment 3, liquid overlay 3 weeks post inoculation, 5 mLs on solid WPM, Oasis Wedge transfer): 15.45%
- TF % (mean of 3 repeats) ([4]; Treatment 4, hydration medium BGM w/o cefotaxime, incubation with Agrobacteria 30 minutes): 18.50%
- TF % (mean of repeats) ([4]; Treatment 4, liquid overlay 3 weeks post inoculation, 10 mLs on solid WPM, Oasis Wedge transfer): 18.50%
- TF % (mean of 3 repeats) ([4]; Treatment 5, hydration medium INO, incubation with Agrobacteria 0 minutes): 13.98%
- TF % (mean of repeats) ([4]; Treatment 5, liquid overlay 4 weeks post inoculation, 5 mLs on solid WPM, Oasis Wedge transfer): 13.98%
- TF % (mean of 3 repeats) ([4]; Treatment 6, hydration medium INO, incubation with Agrobacteria 15 minutes): 9.64%
- TF % (mean of repeats) ([4]; Treatment 6, liquid overlay 4 weeks post inoculation, 10 mLs on solid WPM, Oasis Wedge transfer): 9.64%
- TF % (mean of 3 repeats) ([4]; Treatment 7, hydration medium INO, incubation with Agrobacteria 30 minutes): 13.79%
- TF % (mean of repeats) ([4]; Treatment Control-1, liquid overlay NA, overlay volume None, no Oasis Wedge transfer): 8.00%
- % quality events ([5]; Dry Excised - 2T/OriRi, 14 events assayed): 28.6%
- # Events produced ([5]; Dry Excised - 2T/OriRi, 161 explants): 15
- Estimated mTF % ([5]; Dry Excised - 2T/OriRi): 0.45%
- TF % ([5]; Dry Excised - 2T/OriRi): 9.32 +/− 7.38%
- qTF % ([5]; Dry Excised - 2T/OriRi): 2.5%
- % quality events ([5]; Dry Excised - 2T/OriV, 32 events assayed): 21.9%
- # Events produced ([5]; Dry Excised - 2T/OriV, 260 explants): 34
- Estimated mTF % ([5]; Dry Excised - 2T/OriV): 0.62%
- TF % ([5]; Dry Excised - 2T/OriV): 13.1 +/− 0.17%
- qTF % ([5]; Dry Excised - 2T/OriV): 2.7 +/− 0.23%
- % quality events ([5]; Pre-cultured Dry - 2T/OriRi, 64 events assayed): 20.3%
- # Events produced ([5]; Pre-cultured Dry - 2T/OriRi, 336 explants, pre-culture 5 days 23° C. dark in BGM): 66
- Estimated mTF % ([5]; Pre-cultured Dry - 2T/OriRi): 0.7%
- TF % ([5]; Pre-cultured Dry - 2T/OriRi, pre-culture 5 days 23° C. dark in BGM): 19.64 +/− 1.97%
- qTF % ([5]; Pre-cultured Dry - 2T/OriRi): 3.9 +/− 1.22%
- % quality events ([5]; Pre-cultured Dry - 2T/OriV, 311 events assayed): 24.4%
- # Events produced ([5]; Pre-cultured Dry - 2T/OriV, 1641 explants, pre-culture 5 days 23° C. dark in BGM): 319
- Estimated mTF % ([5]; Pre-cultured Dry - 2T/OriV): 1.1%
- TF % ([5]; Pre-cultured Dry - 2T/OriV, pre-culture 5 days 23° C. dark in BGM): 19.4 +/− 5.42%
- qTF % ([5]; Pre-cultured Dry - 2T/OriV): 4.6 +/− 1.35%
- R0 plants ([6]; Fresh Dry Explants, no pre-culture step, 375 explants): 24
- TF ([6]; Fresh Dry Explants, no pre-culture step): 6.40%
- R0 plants ([6]; Fresh Dry Explants, pre-culture step 5 days 23° C. dark in BGM, 1008 explants): 112
- TF ([6]; Fresh Dry Explants, pre-culture step 5 days 23° C. dark in BGM): 11.11%
- R0 plants ([6]; Stored Dry Explants (3 months), no pre-culture step, 678 explants): 71
- TF ([6]; Stored Dry Explants (3 months), no pre-culture step): 10.47%
- R0 plants ([6]; Stored Dry Explants (3 months), pre-culture step 5 days 23° C. dark in BGM, 901 explants): 129
- TF ([6]; Stored Dry Explants (3 months), pre-culture step 5 days 23° C. dark in BGM): 14.32%
- R0 plants ([6]; Wet Excised explants, no pre-culture step, 263 explants): 75
- TF ([6]; Wet Excised explants, no pre-culture step): 28.52%
